From PMC3514216, “SRC Homology 2 Domain Binding Sites in Insulin, IGF-1 and FGF receptor mediated signaling networks reveal an extensive potential interactome” (Cell Communication and Signaling : CCS, 2012)

System: panel of 50 SH2 domains
Assay: SPOT peptide array probed with each of 50 GST-SH2 domains
Format: binding
Settings: for 2X < SH2 Domains < 3X / SH2 Domains >3X: SPOT192 peptide array; for 2X < SH2 Domains < 3X: list of GST-SH2 domains with spot intensity between 2X and 3X array mean (indeterminate range); for SH2 Domains >3X: list of GST-SH2 domains with spot intensity >3X array mean (array-positive)
Text: The use of addressable peptide arrays is a reproducible and semi-quantitative approach that has been extensively validated for studying protein interactions with peptide ligands. To investigate connections between SH2 domain proteins and their putative phosphorylated docking sites on cell surface receptors, we developed addressable arrays consisting of 192 phosphotyrosine peptides. This peptide set was assembled using 71 phosphotyrosine peptide motifs corresponding to all of the cytoplasmic tyrosine residues within the FGF receptors (FGFR1-4), insulin receptor (InsR) and IGF-1 receptor (IGF-1R) (Figure 1A). Activation of these receptors results in the phosphorylation of associated scaffold proteins, and so 75 phosphotyrosine peptides corresponding to a comprehensive list of tyrosine residues within insulin receptor substrates (IRS-1 and IRS-2) and fibroblast receptor substrates (FRS-2 and FRS-3) were included. In addition, 33 phosphotyrosine peptides were incorporated from the downstream signaling proteins PLC-γ1, p130Cas (BCAR1) and p62DOK1. […] These control peptides provide a reference and establish the empirical cut-off for designated binding interactions (Table 1). No discrimination was made against peptides on the basis of reported phosphorylation state in order to examine a diverse and unbiased set of motifs. The resulting set of 192 phosphotyrosine peptides and their corresponding position in the proteins of origin is noted in Additional file 1: Table S1. Addressable arrays were synthesized as membrane-bound 11-mer peptides using the SPOT synthesis technique. While the majority of SH2 domains recognize residues C-terminal to the phosphotyrosine in their cognate peptide ligands, additional contacts between SH2 domains and residues N-terminal to the phosphotyrosine are observed for the SH2 domain of Sh2d1a (SAP) and cannot be ruled out in other cases. Peptides were synthesized with six flanking residues C-terminal to the phosphotyrosine and four residues N-terminal to the phosphotyrosine.
To assess the potential network of SH2 domain interactions we selected 50 SH2 domains representing 28 of the 38 families of SH2 domains (Figure 1B) all of which we have previously shown can be expressed and purified. These include a number of extensively studied SH2 domains (Src, Grb2, PLCγ), as well as a number of less studied SH2 domains from proteins such as Shd, She, Shf, Slnk (Sh2d6), Sh2d1a (SAP), Sh2d1b (Eat-2), and Brdg1. To address potential variability in specificity within families we employed all members from the SHB, CRK, GRB2, SRC and ABL families (families are indicated with complete Capitalized lettering).
SH2 domains were arrayed as GST fusion proteins and detected using anti-GST primary antibodies and near-infrared labeled secondary antibodies. In an effort to present a dataset with minimal false positives, we chose an empirical cutoff based on the array average across all peptide spots to classify interactions (Figure 1A). In cases where the intensity of the signal for an individual SH2-domain binding event exceeded the mean intensity of all the peptides on the membrane by three-fold were scored as “array positives” [22]. Non-binding was judged in cases where the intensity of a spot was less than the mean intensity of all spots on the membrane and these were scored as “array negatives”. Peptides with signal intensities between 1X and 3X mean were scored as “indeterminate” and ascribed as neither array positive binding interactions nor array-negative non-binders. […] This signature may be indicative of promiscuity differences between phosphopeptides or there may be a subset of peptides which interact in a nonspecific fashion with either the GST fusion tag or one of the antibodies used for detection, resulting in false positives. […]

| Substance | 2X < SH2 Domains < 3X | SH2 Domains >3X | Other SH2 domains bound (additional array-positive SH2 domains) (SH2 domains with intensity >3X array mean, GST-SH2 0.25 μM, 1 mM DTT) |
| --- | --- | --- | --- |
| LIGIpYRLCLTS [B24] | BCAR3, BRDG1, MIST, SHD |  |  |
| AYHPpYPEDYGD [D16] | MATK, SLNK | BMX |  |
| VIMLpYVFHRKR [B11] | GRB2, PI3K1_C, PLCG2_C, SH3BP2, SYK_C | BCAR3, BMX, BRDG1, BRK, DAPP1, FER, MATK, MIST, PI3K1_N, PLCG2_N, PTPN11_N, PTPN11_C, RASA1_C, RIN1, SHB, SHF, SHD, SHE, TENC1 |  |
| HIDYpYKKTTNG [E14] | CRKL, ITK, PLCG2_N, PLCG2_C, PTPN11_N, RIN1, SH3BP2, SHB, SHD, SYK_C, ZAP70_N | BCAR3, BMX, BRDG1, CRK, FER, MIST, PTPN11_C, SHF, TENC1 |  |
| SLTIpYAQVQKA [A08] | MIST, PI3K1_N, PTPN11_N, PTPN11_C, RIN1, Sh2b, SHC1, SHD, SYK_C | BCAR3, BMX, BRDG1, FER, MATK, SH2D1B, TENC1 |  |
| IGSIpYLFLRKR [A17] | FGR, GRB2, PI3K1_C, PLCG2_C, SH3BP2, SHE, SYK_C | BCAR3, BMX, BRDG1, BRK, DAPP1, FER, MATK, MIST, PI3K1_N, PLCG2_N, PTPN11_N, PTPN11_C, RASA1_C, RIN1, Sh2b, SHB, SHF, SHD, TENC1 |  |
| PVFFpYVQAKTG [B09] | BCAR3, RASA1_C, SHF, TENC1 | BRDG1, MIST, Sh2b, SYK_C |  |
| SNPEpYLSASDV [A19] |  | VAV1 |  |
| APVSpYADMRTG [C21] | MIST |  |  |
| NPGFpYVEANPM [H03] | PI3K1_C | ZAP70_N |  |
| QQGLpYQVPGPS [H07] |  | CRK, CRKL |  |
| VSFYpYSEENKP [B16] | ABL2, MATK | ABL1, BCAR3 |  |
| DNLPpYVQILKT [E03] | BCAR3, FER, GRAP, MATK, PI3K1_C, PTPN11_N, RIN1, SHD | BRDG1, MIST, PI3K1_N, PTPN11_C, Sh2b, TENC1 |  |
| RSDDpYMPMSPA [D19] | PI3K1_C |  |  |
| QSHTpYVNTPAS [G12] | ABL1, SH2D2A | GADS, GRAP, GRB2, GRB7, VAV1 |  |
| GDITpYGQFAQL [G17] | GRB7 |  |  |

| Substance | 2X < SH2 Domains < 3X | SH2 Domains >3X | Other SH2 domains bound (additional array-positive SH2 domains) (SH2 domains with intensity >3X array mean, GST-SH2 0.25 μM, 1 mM DTT) |
| --- | --- | --- | --- |
| LVALpYTRDEHF [B21] | SH2D2A |  |  |
| CTGDpYMNMSPV [C09] | PI3K1_C |  |  |
| YELPpYNPATDD [H22] |  | SLNK |  |
| SLPQpYPHINGS [F06] |  | ZAP70_N |  |
| TNELpYMMMRDS [E17] | PI3K1_C |  |  |
| RTELpYAVIDIE [G10] | ABL1, BRK, RASA1_C, SHD, YES | ABL2, BMX, ITK, MIST, PLCG2_C, RASA1_N, Sh2b, SH2D1B, SHB, SHF, SHE, SYK_C |  |
| ATDLpYQVPPGP [H08] | CRKL | CRK |  |
| GYPRpYPSFGDA [G01] | ZAP70_N |  |  |
| CGRSpYRRVSGD [D12] | BRDG1, ITK, MIST, PLCG2_N, SHB, SHF, SYK_C, TENC1 | BCAR3 |  |
| PPALpYAEPLDS [11-mer phosphotyrosine peptide, p62DOK1 (Y296)] |  |  | Abl1, Nck1, Vav1, Zap70_N |
| ALLNpYENLPSL [G05] | BRK, PI3K1_N | ABL1, ABL2, CRK, FER, GADS, GRAP, GRB2, GRB7, PI3K1_C, SH2D2A, SH3BP2, TENC1 |  |
| ENSLpYSPTWEG [H14] | ABL1, BLK, LCK, SH2D1B, SHIP1 | ABL2, FYN, LYN, NCK1, SHC1, VAV1 |  |
| QDSLpYSDPLDS [H16] | BLK, FGR, SHIP1 | ABL1, FYN, HCK, LCK, LYN, NCK1, RASA1_C, SRC, ZAP70_N |  |
| GVSEpYELPEDP [E05] | BLK, BMX, DAPP1, FER, FGR, LCK, LYN, RIN1, SH3BP2, SHC1 | BRK, NCK1, PLCG2_C, VAV1, YES |  |
| SRGDpYMTMQMS [C19] |  | PI3K1_C |  |
| SLDEpYGSSPGD [D09] | BLK, LCK | SLNK |  |
